{"source": "paper PMC4581724", "about": "(Analytical biochemistry, 2015)", "key": {"CrAS3MT [1]": {"molecular_target": "T1, CrAS3MT (Chlamydomonas reinhardtii, UniProt K0BVM7)", "T1 sequence (K0BVM7 1-379)": "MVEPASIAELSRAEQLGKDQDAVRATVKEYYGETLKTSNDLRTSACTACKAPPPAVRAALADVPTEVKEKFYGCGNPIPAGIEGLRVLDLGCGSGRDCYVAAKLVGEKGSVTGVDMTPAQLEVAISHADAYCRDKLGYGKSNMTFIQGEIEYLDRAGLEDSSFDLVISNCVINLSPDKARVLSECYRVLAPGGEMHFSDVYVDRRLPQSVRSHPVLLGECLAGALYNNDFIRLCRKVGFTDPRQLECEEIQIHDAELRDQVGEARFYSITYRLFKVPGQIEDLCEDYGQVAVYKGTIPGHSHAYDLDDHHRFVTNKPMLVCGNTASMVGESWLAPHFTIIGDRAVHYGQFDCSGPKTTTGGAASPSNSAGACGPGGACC", "assay": "biochemical", "format": "biochemical"}, "Y72W CrAS3MT": {"system": "Y72W CrAS3MT", "format": "binding, Chlamydomonas reinhardtii"}, "CrAS3MT [2]": {"molecular_target": "T1, CrAS3MT", "format": "biochemical"}, "SAM methyltransferases": {"system": "SAM methyltransferases", "conditions": "read-out: IC50 for SAM methyltransferases; cited from earlier work"}}, "note": "Where two headings read alike, the source gives them in different places."}
{"molecule": "CSS(C)(=O)=O", "note": "[MMTS, methylmethanethiosulfonate]", "values": [{"measurement": "IC50", "setting": "CrAS3MT [1]; read-out: IC50 for inhibition of SAH production (half-maximal inhibition)", "result": 43, "unit": "µM"}, {"measurement": "effect on quenching of Y72W by As(III)", "setting": "Y72W CrAS3MT", "result": "significant reduction in quenching"}, {"measurement": "effect on the fluorescence of Y72W (quenching)", "setting": "Y72W CrAS3MT", "result": "quenched"}, {"measurement": "protein fluorescence quenching at 20 μM MMTS", "setting": "Y72W CrAS3MT", "result": "not substantially quenched"}]}
{"molecule": "CCN1C(=O)C=CC1=O", "note": "[NEM, N-ethylmaleimide]", "values": [{"measurement": "IC50", "setting": "CrAS3MT [1]", "result": 140, "unit": "µM"}, {"measurement": "effect on arsenic methylation", "setting": "CrAS3MT [2]", "result": "completely inhibited"}]}
{"molecule": "[Sb+3]", "note": "[Sb(III)]", "values": [{"measurement": "effect on the fluorescence of Y72W (quenching)", "setting": "Y72W CrAS3MT", "result": "most quenching at the lowest concentration"}]}
{"molecule": "Nc1ncnc2c1ncn2[C@@H]1O[C@H](CC(N)CCC(N)C(=O)O)[C@@H](O)[C@H]1O", "note": "(stereo partly shown) [sinefungin, 5′-deoxy-5′-(1,4-diamino-4-carboxybutyl)adenosine]", "values": [{"measurement": "IC50", "setting": "CrAS3MT [1]", "result": 0.5, "unit": "µM"}, {"measurement": "effect on As(III)-induced fluorescence quenching", "setting": "Y72W CrAS3MT", "result": "no effect"}, {"measurement": "quenching of Y72W fluorescence by sinefungin", "setting": "Y72W CrAS3MT", "result": "did not quench"}, {"measurement": "effect on formation of DMAs(V)", "setting": "CrAS3MT [2]", "result": "significantly inhibited"}, {"measurement": "IC50", "setting": "SAM methyltransferases", "result": "0.1 to 20", "unit": "µM"}]}
{"molecule": "arsenite [As(III)]", "values": [{"measurement": "As(III) concentration at which activity could be detected", "setting": "CrAS3MT [1]", "result": "10^−8 molar"}]}
